Measured values: ChEMBL document CHEMBL3885881, “DrugMatrix”

Organism: Rattus norvegicus
Assay: DrugMatrix - Regimen: Daily Repeat
Format: toxicity, organism-based, Sprague-Dawley
Design: regimen Daily Repeat, gender Male, age 6-8 weeks
Details: in vivo, po, route oral GAVAGE, […]; for ABSOLUTE BASOPHIL / ABSOLUTE EOSINOPHIL / ABSOLUTE LYMPHOCYTE / ABSOLUTE MONOCYTE / ABSOLUTE SEGMENTED NEUTROPHIL / BASOPHIL / EOSINOPHIL / ERYTHROCYTE COUNT / HEMATOCRIT / HEMOGLOBIN / LEUKOCYTE COUNT / LYMPHOCYTE / MEAN CORPUSCULAR HEMOGLOBIN / MEAN CORPUSCULAR HEMOGLOBIN CONCENTRATION / MEAN CORPUSCULAR VOLUME / MONOCYTE / NEUTROPHIL / NUCLEATED RED BLOOD CELLS / PLATELET COUNT: tissue Blood; for ALANINE AMINOTRANSFERASE / ALBUMIN / ALKALINE PHOSPHATASE / ASPARTATE AMINOTRANSFERASE / BLOOD UREA NITROGEN / CARBON DIOXIDE / CHLORIDE / CHOLESTEROL / CREATINE PHOSPHOKINASE / CREATININE / GLUCOSE / LACTATE DEHYDROGENASE / LIPASE / PHOSPHORUS / POTASSIUM / SODIUM / TOTAL BILIRUBIN / TOTAL PROTEIN / URIC ACID: tissue Plasma
[1] = 30 mg/kg, 120 h, dose level Low, time 5 day
[2] = 1093 mg/kg, 72 h, dose level High, time 3 day
[3] = 1093 mg/kg, 120 h, dose level High, time 5 day

## CCC(C)n1ncn(-c2ccc(N3CCN(c4ccc(OCC5COC(Cn6cncn6)(c6ccc(Cl)cc6Cl)O5)cc4)CC3)cc2)c1=O (centres undefined) [ITRACONAZOLE]
[1]
  ABSOLUTE BASOPHIL: 0 CELLS/uL
  ABSOLUTE EOSINOPHIL: 154 CELLS/uL
  ABSOLUTE LYMPHOCYTE: 10619.33 CELLS/uL
  ABSOLUTE MONOCYTE: 425.67 CELLS/uL
  ABSOLUTE SEGMENTED NEUTROPHIL: 634.33 CELLS/uL
  BASOPHIL: 0%
  EOSINOPHIL: 1.33%
  ERYTHROCYTE COUNT: 5.97 x10E6/uL
  HEMATOCRIT: 38.27%
  HEMOGLOBIN: 14.43 G/DL
  LEUKOCYTE COUNT: 11.83 x10E3/uL
  LYMPHOCYTE: 89.67%
  MEAN CORPUSCULAR HEMOGLOBIN: 24.2 pg
  MEAN CORPUSCULAR HEMOGLOBIN CONCENTRATION: 37.77 G/DL
  MEAN CORPUSCULAR VOLUME: 64.1 fL
  MONOCYTE: 3.67%
  NEUTROPHIL: 5.33%
  NUCLEATED RED BLOOD CELLS: 0 /100WBC
  PLATELET COUNT: 1278.33 x10E3/uL
  ALANINE AMINOTRANSFERASE: 59.67 u/L
  ALBUMIN: 4.03 G/DL
  ALKALINE PHOSPHATASE: 472.33 u/L
  ASPARTATE AMINOTRANSFERASE: 77 u/L
  BLOOD UREA NITROGEN: 9 mg/dL
  CARBON DIOXIDE: 23.67 mmol/L
  CHLORIDE: 102.67 MEQ/L
  CHOLESTEROL: 50.33 mg/dL
  CREATINE PHOSPHOKINASE: 199.67 u/L
  CREATININE: 0.12 mg/dL
  GLUCOSE: 162.67 mg/dL
  LACTATE DEHYDROGENASE: 92.67 u/L
  LIPASE: 6.33 u/L
  PHOSPHORUS: 11.77 mg/dL
  POTASSIUM: 6.35 MEQ/L
  SODIUM: 142.93 MEQ/L
  TOTAL BILIRUBIN: 0.13 mg/dL
  TOTAL PROTEIN: 5.97 G/DL
  URIC ACID: 1.6 mg/dL
[2]
  ABSOLUTE BASOPHIL: 0 CELLS/uL
  ABSOLUTE EOSINOPHIL: 143 CELLS/uL
  ABSOLUTE LYMPHOCYTE: 12564.33 CELLS/uL
  ABSOLUTE MONOCYTE: 467.67 CELLS/uL
  ABSOLUTE SEGMENTED NEUTROPHIL: 825 CELLS/uL
  BASOPHIL: 0%
  EOSINOPHIL: 1%
  ERYTHROCYTE COUNT: 6.06 x10E6/uL
  HEMATOCRIT: 38.43%
  HEMOGLOBIN: 14.67 G/DL
  LEUKOCYTE COUNT: 14 x10E3/uL
  LYMPHOCYTE: 89.67%
  MEAN CORPUSCULAR HEMOGLOBIN: 24.23 pg
  MEAN CORPUSCULAR HEMOGLOBIN CONCENTRATION: 38.17 G/DL
  MEAN CORPUSCULAR VOLUME: 63.43 fL
  MONOCYTE: 3.33%
  NEUTROPHIL: 6%
  NUCLEATED RED BLOOD CELLS: 0 /100WBC
  PLATELET COUNT: 1165.33 x10E3/uL
  ALANINE AMINOTRANSFERASE: 57 u/L
  ALBUMIN: 4 G/DL
  ALKALINE PHOSPHATASE: 535.67 u/L
  ASPARTATE AMINOTRANSFERASE: 71 u/L
  BLOOD UREA NITROGEN: 10.67 mg/dL
  CARBON DIOXIDE: 22.67 mmol/L
  CHLORIDE: 102.33 MEQ/L
  CHOLESTEROL: 50.33 mg/dL
  CREATINE PHOSPHOKINASE: 230.33 u/L
  CREATININE: 0.12 mg/dL
  GLUCOSE: 165 mg/dL
  LACTATE DEHYDROGENASE: 54.33 u/L
  LIPASE: 9.33 u/L
  PHOSPHORUS: 10.63 mg/dL
  POTASSIUM: 6.01 MEQ/L
  SODIUM: 142.3 MEQ/L
  TOTAL BILIRUBIN: 0.17 mg/dL
  TOTAL PROTEIN: 5.87 G/DL
  URIC ACID: 1.77 mg/dL
[3]
  ABSOLUTE BASOPHIL: 0 CELLS/uL
  ABSOLUTE EOSINOPHIL: 139 CELLS/uL
  ABSOLUTE LYMPHOCYTE: 10102.67 CELLS/uL
  ABSOLUTE MONOCYTE: 609.67 CELLS/uL
  ABSOLUTE SEGMENTED NEUTROPHIL: 1115.33 CELLS/uL
  BASOPHIL: 0%
  EOSINOPHIL: 1%
  ERYTHROCYTE COUNT: 5.79 x10E6/uL
  HEMATOCRIT: 36.73%
  HEMOGLOBIN: 14.13 G/DL
  LEUKOCYTE COUNT: 11.97 x10E3/uL
  LYMPHOCYTE: 84.67%
  MEAN CORPUSCULAR HEMOGLOBIN: 24.4 pg
  MEAN CORPUSCULAR HEMOGLOBIN CONCENTRATION: 38.47 G/DL
  MEAN CORPUSCULAR VOLUME: 63.43 fL
  MONOCYTE: 5%
  NEUTROPHIL: 9.33%
  NUCLEATED RED BLOOD CELLS: 0 /100WBC
  PLATELET COUNT: 1189.33 x10E3/uL
  ALANINE AMINOTRANSFERASE: 78.67 u/L
  ALBUMIN: 4.17 G/DL
  ALKALINE PHOSPHATASE: 402 u/L
  ASPARTATE AMINOTRANSFERASE: 84.33 u/L
  BLOOD UREA NITROGEN: 10.67 mg/dL
  CARBON DIOXIDE: 22.33 mmol/L
  CHLORIDE: 103.67 MEQ/L
  CHOLESTEROL: 67 mg/dL
  CREATINE PHOSPHOKINASE: 522 u/L
  CREATININE: 0.21 mg/dL
  GLUCOSE: 181 mg/dL
  LACTATE DEHYDROGENASE: 126 u/L
  LIPASE: 17.33 u/L
  PHOSPHORUS: 11.7 mg/dL
  POTASSIUM: 5.88 MEQ/L
  SODIUM: 143.47 MEQ/L
  TOTAL BILIRUBIN: 0.13 mg/dL
  TOTAL PROTEIN: 5.83 G/DL
  URIC ACID: 2 mg/dL
